Data from patent US20120065187A1 (ALCON RESEARCH, LTD, priority 2008, published 2012).

How the values were obtained:
[1] = target: T1, human H4 (Homo sapiens, UniProt Q9H3N8); assay: In vitro histamine receptor cell-based assay (aequorin bioluminescence), H4 antagonism; settings: CHO-K1 cells expressing human H4, aequorin and Gα16; histamine at EC80; read-out: H4 Antagonist EC50
T1 construct: host or cells: CHO-K1
Procedure, shortened: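 CHO-K1 cells stably expressing human H4, Gα16 and mitochondrial aequorin, loaded with 5 μM coelenterazine-h, preincubated 15 min at room temperature with compound, then challenged with histamine at EC80.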

[2] = target: T2, human H1 (Homo sapiens, UniProt P35367); assay: In vitro histamine receptor cell-based assay (aequorin bioluminescence), H1 antagonism; settings: CHO-K1 cells expressing human H1 and aequorin; histamine at EC80; read-out: H1 Antagonist EC50
T2 construct: host or cells: CHO-K1
T2 sequence (P35367 whole entry): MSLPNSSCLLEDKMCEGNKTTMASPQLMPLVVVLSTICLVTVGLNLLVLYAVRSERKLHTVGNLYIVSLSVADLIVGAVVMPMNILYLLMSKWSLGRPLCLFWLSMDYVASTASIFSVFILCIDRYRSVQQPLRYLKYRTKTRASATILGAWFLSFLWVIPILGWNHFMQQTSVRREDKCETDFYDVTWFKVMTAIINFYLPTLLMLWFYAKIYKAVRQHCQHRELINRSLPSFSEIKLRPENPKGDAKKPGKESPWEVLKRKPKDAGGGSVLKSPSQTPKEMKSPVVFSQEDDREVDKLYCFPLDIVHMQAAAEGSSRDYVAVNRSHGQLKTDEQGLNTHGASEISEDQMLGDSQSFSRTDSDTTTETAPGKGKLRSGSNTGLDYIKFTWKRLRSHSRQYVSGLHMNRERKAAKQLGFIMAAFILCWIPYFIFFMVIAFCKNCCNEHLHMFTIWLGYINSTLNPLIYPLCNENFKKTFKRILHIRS
Procedure, shortened: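 Stable CHO-K1 lines expressing human H1 or H4 (H4 with Gα16) plus mitochondrial aequorin, loaded 4 h with 5 μM coelenterazine-h at ~21 °C. Compounds preincubated 15 min, then histamine at EC80 added; bioluminescence decrease (AUC or max–min) expressed as % of positive control (diphenhydramine for H1, JNJ7777120 for H4, 10 μM).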

| EC50 [1] [µM] | EC50 [2] [µM] | SMILES |
| --- | --- | --- |
| < 10 | > 10 | CN1CCN(c2nc3c(F)cc(Cl)cc3n3cnnc23)CC1 [Example 197, 8-chloro-6-fluoro-4-(4-methylpiperazin-1-yl)-[1,2,4]triazolo[4,3-a]quinoxaline] |
| < 10 | > 10 | CN1CCN(c2nc3cc(Br)c(F)cc3n3cnnc23)CC1 [Example 199, 7-bromo-8-fluoro-4-(4-methylpiperazin-1-yl)-[1,2,4]triazolo[4,3-a]quinoxaline] |
| < 10 | > 10 | Fc1cc2c(cc1C(F)(F)F)nc(N1CCNCC1)c1nnnn12 [Example 200, 8-fluoro-4-(piperazin-1-yl)-7-(trifluoromethyl)tetrazolo[1,5-a]quinoxaline] |
| < 10 | > 10 | Cc1nc2c(N3CCN(C)CC3)nc3ccc(C(F)(F)F)cc3c2o1 [Example 214, 2-methyl-4-(4-methylpiperazin-1-yl)-8-(trifluoromethyl)oxazolo[4,5-c]quinoline] |
| < 10 | > 10 | Cc1nc2c(N3CCN(C)CC3)nc3cc(F)c(Cl)cc3c2o1 [Example 216, 8-chloro-7-fluoro-2-methyl-4-(4-methylpiperazin-1-yl)oxazolo[4,5-c]quinoline] |
| < 10 | > 10 | Cc1nc2c(N3CCNCC3)nc3cc(F)c(Cl)cc3c2o1 [Example 217, 8-chloro-7-fluoro-2-methyl-4-(piperazin-1-yl)oxazolo[4,5-c]quinoline] |
| < 10 | > 10 | CN1CCN(c2nc3cc(C(F)(F)F)ccc3c3conc23)CC1 [Example 220, 4-(4-Methylpiperazinyl)-7-(trifluoromethyl)isoxazolo[3,4-c]quinoline] |
| < 10 | > 10 | CN1CCN(c2nc3ccc(Br)cc3c3conc23)CC1 [Example 222, 8-bromo-4-(4-methylpiperazin-1-yl)isoxazolo[3,4-c]quinoline] |
| < 10 | < 10 | Brc1ccc2nc(N3CCNCC3)c3nocc3c2c1 [Example 223, 8-bromo-4-(piperazin-1-yl)isoxazolo[3,4-c]quinoline] |

The next lines start with the compound.

| SMILES | EC50 [1] [µM] | EC50 [2] [µM] |
| --- | --- | --- |
| Fc1cc(Cl)cc2c1nc(N1CCNCC1)c1nncn12 [Example 196, 8-chloro-6-fluoro-4-(piperazin-1-yl)-[1,2,4]triazolo[4,3-a]quinoxaline] | < 10 | > 10 |
| Fc1cc2c(cc1Br)nc(N1CCNCC1)c1nncn12 [Example 198, 7-bromo-8-fluoro-4-(piperazin-1-yl)-[1,2,4]triazolo[4,3-a]quinoxaline] | < 10 | > 10 |
| CN1CCN(c2nc3cc(C(F)(F)F)c(F)cc3n3nnnc23)CC1 [Example 201, 8-fluoro-4-(4-methylpiperazin-1-yl)-7-(trifluoromethyl)tetrazolo[1,5-a]quinoxaline] | < 10 | > 10 |
| Cc1nc2c(N3CCNCC3)nc3ccc(C(F)(F)F)cc3c2o1 [Example 215, 2-methyl-4-(piperazin-1-yl)-8-(trifluoromethyl)oxazolo[4,5-c]quinoline] | < 10 | > 10 |
| CN1CCN(c2nc3ccc(C(F)(F)F)cc3c3conc23)CC1 [Example 218, 4-(4-methylpiperazin-1-yl)-8-(trifluoromethyl)isoxazolo[3,4-c]quinoline] | < 10 | > 10 |
| CN1CCN(c2nc3ccc(C(F)(F)F)c(F)c3n3cnnc23)CC1 [Example 236, 9-fluoro-4-(4-methylpiperazin-1-yl)-8-(trifluoromethyl)-[1,2,4]triazolo[4,3-a]quinoxaline] | < 10 | > 10 |
| Cc1nc2c3cc(Cl)ccc3nc(N3CCN4CCCC4C3)n2n1 (stereo not shown) [Example 245, 9-chloro-5-(hexahydropyrrolo[1,2-a]pyrazin-2(1H)-yl)-2-methyl-[1,2,4]triazolo[1,5-c]quinazoline] | < 10 | < 10 |
| CN1CCN(c2nc3cc(Cl)ccc3c3cccnc23)CC1 [Example 249, 8-chloro-5-(4-methylpiperazin-1-yl)benzo[f][1,7]naphthyridine] | < 10 | < 10 |
